What was measured:
[1] = system: U-insertion gRNA/pre-mRNA hybrid RNA (pre-cleaved) (RNA, duplex, 3'-end amino modification in two of the oligoribonucleotides used (which ones stated only in S1 Table)) GGAAGUAUGAGACGUAGG/AUUGGAGUUAUAG/CUAUAACUCCGAUAAACCUACGUCUCAUACUUCC; assay: isothermal titration calorimetry; settings: 30 mM KCl, 10 mM Mg(OAc)2; 20 mM HEPES/KOH pH 7.5, 0.5 mM DTT, 27°C; 2 μM RNA; macroscopic, 3 sites
[2] = system: U-deletion gRNA/pre-mRNA hybrid RNA (pre-cleaved) (RNA, duplex, 3'-end amino modification in two of the oligoribonucleotides used (which ones stated only in S1 Table)) GGAAAGGGAAAGUUGUGAUUUU/GCGAGUUAUAGAAUA/GGUUCUAUAACUCGCUCACAACUUUCCCUUUCC; assay: circular dichroism titration, 273 nm; settings: Na+ (65 mM NaCl, 10 mM Na cacodylate); pH 6.8, 27°C; 12 μM RNA; neomycin up to 0.6 mM; A-form retained
[3] = system: U-insertion gRNA/pre-mRNA hybrid RNA (pre-cleaved) (RNA, duplex, 3'-end amino modification in two of the oligoribonucleotides used (which ones stated only in S1 Table)) GGAAGUAUGAGACGUAGG/AUUGGAGUUAUAG/CUAUAACUCCGAUAAACCUACGUCUCAUACUUCC; assay: circular dichroism titration, 273 nm; settings: Na+ (65 mM NaCl, 10 mM Na cacodylate); pH 6.8, 27°C; 12 μM RNA; neomycin up to 0.6 mM; A-form retained
[4] = system: U-deletion gRNA/pre-mRNA hybrid RNA (pre-cleaved) (RNA, duplex, 3'-end amino modification in two of the oligoribonucleotides used (which ones stated only in S1 Table)) GGAAAGGGAAAGUUGUGAUUUU/GCGAGUUAUAGAAUA/GGUUCUAUAACUCGCUCACAACUUUCCCUUUCC; assay: isothermal titration calorimetry; settings: 30 mM KCl, 10 mM Mg(OAc)2; 20 mM HEPES/KOH pH 7.5, 0.5 mM DTT, 27°C; 2 μM RNA; macroscopic, 3 sites
[5] = system: U-deletion gRNA/pre-mRNA hybrid RNA (pre-cleaved) (RNA, duplex, 3'-end amino modification in two of the oligoribonucleotides used (which ones stated only in S1 Table)) GGAAAGGGAAAGUUGUGAUUUU/GCGAGUUAUAGAAUA/GGUUCUAUAACUCGCUCACAACUUUCCCUUUCC; assay: UV melting, 260 nm; settings: Na+ (5 mM Na cacodylate; NaCl not stated); pH 6.8; 1 μM RNA; neomycin 1.3 μM or 13 μM; two helices; 11–13 over both RNAs
[6] = system: U-insertion gRNA/pre-mRNA hybrid RNA (pre-cleaved) (RNA, duplex, 3'-end amino modification in two of the oligoribonucleotides used (which ones stated only in S1 Table)) GGAAGUAUGAGACGUAGG/AUUGGAGUUAUAG/CUAUAACUCCGAUAAACCUACGUCUCAUACUUCC; assay: UV melting, 260 nm; settings: Na+ (5 mM Na cacodylate; NaCl not stated); pH 6.8; 1 μM RNA; neomycin 1.3 μM or 13 μM; two helices; 11–13 over both RNAs

- Kd [1]: 1.1 µM
- binding [2]: yes
- binding [3]: yes
- Kd [4]: 1.0 µM
- binding [5]: yes
- binding [6]: yes
Compound: NC[C@@H]1O[C@H](O[C@H]2[C@@H](O)[C@H](O[C@@H]3[C@@H](O)[C@H](N)C[C@H](N)[C@H]3O[C@H]3O[C@H](CN)[C@@H](O)[C@H](O)[C@H]3N)O[C@@H]2CO)[C@H](N)[C@@H](O)[C@@H]1O
